Reference: PubChem BioAssay AID1259411 (Chemical Carcinogenesis Research Information System (CCRIS), 2018)
Active and inactive are the calls of the source. No rule for the calls is given here.

System: rodent carcinogenicity bioassays, tumor incidence
Experiment: CCRIS carcinogenicity studies
How it was run: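 Archive of carcinogenicity, mutagenicity, tumor promotion and tumor inhibition results drawn from journals, NCI reports and other sources, expert-reviewed; covers 1985-2011 and is no longer updated.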

[Ga]#[As]
carcinogen call (Species: MOUSE, Strain/Sex: B6C3F1/FEMALE, Route: INHALATION, Dose: 0, 0.1, 0.5, 1 MG/M3 6 HR/D 5D/WK FOR 106 WK (STUDY DURATION: 106 WK), Dose: 0, 0.1, 0.5, 1 MG/M3 6 HR/D 5D/WK FOR 106 WK (STUDY DURATION: 106 WK)): inactive; negative
carcinogen call (Species: MOUSE, Strain/Sex: B6C3F1/MALE, Route: INHALATION, Dose: 0, 0.1, 0.5, 1 MG/M3 6 HR/D 5D/WK FOR 105 WK (STUDY DURATION: 105 WK), Dose: 0, 0.1, 0.5, 1 MG/M3 6 HR/D 5D/WK FOR 105 WK (STUDY DURATION: 105 WK)): inactive; negative
carcinogen call (Species: MOUSE, Strain/Sex: ICR/MALE, Route: INTRAPERITONEAL, Dose: 0, 48, 480 MG/KG AS GALLIUM SUSPENDED IN OLIVE OIL ONCE (STUDY DURATION: 18 MO), Dose: 0, 48, 480 MG/KG AS GALLIUM SUSPENDED IN OLIVE OIL ONCE (STUDY DURATION: 18 MO)): inactive; negative
carcinogen call (Species: MOUSE, Strain/Sex: ICR/MALE, Route: SUBCUTANEOUS, Dose: 0, 48, 480 MG/KG AS GALLIUM SUSPENDED IN OLIVE OIL ONCE (STUDY DURATION: 18 MO), Dose: 0, 48, 480 MG/KG AS GALLIUM SUSPENDED IN OLIVE OIL ONCE (STUDY DURATION: 18 MO)): inactive; negative
carcinogen call (Species: RAT, Strain/Sex: F344/N/FEMALE, Route: INHALATION, Dose: 0, 0.01, 0.1, 1 MG/M3 6 HR/D 5D/WK FOR 105 WK (STUDY DURATION: 105 WK), Dose: 0, 0.01, 0.1, 1 MG/M3 6 HR/D 5D/WK FOR 105 WK (STUDY DURATION: 105 WK), Tumor Site: Type of Lesion: LUNG: ALVEOLAR/BRONCHIOLAR ADENOMA): active; positive
carcinogen call (Species: RAT, Strain/Sex: F344/N/MALE, Route: INHALATION, Dose: 0, 0.01, 0.1, 1 MG/M3 6 HR/D 5D/WK FOR 105 WK (STUDY DURATION: 105 WK), Dose: 0, 0.01, 0.1, 1 MG/M3 6 HR/D 5D/WK FOR 105 WK (STUDY DURATION: 105 WK)): inactive; negative

COc1ccc(CCN2CCC(Nc3nc4ccccc4n3Cc3ccc(F)cc3)CC2)cc1
carcinogen call (Species: MOUSE, Strain/Sex: SWISS/FEMALE, Route: ORAL, Dose: 0, 2.5, 10, 40 MG/100 G OF DIET FOR DURATION OF STUDY (STUDY DURATION: 18 Mo), Dose: 0, 2.5, 10, 40 MG/100 G OF DIET FOR DURATION OF STUDY (STUDY DURATION: 18 Mo)): inactive; negative
carcinogen call (Species: MOUSE, Strain/Sex: SWISS/MALE, Route: ORAL, Dose: 0, 2.5, 10, 40 MG/100 G OF DIET FOR DURATION OF STUDY (STUDY DURATION: 18 MO), Dose: 0, 2.5, 10, 40 MG/100 G OF DIET FOR DURATION OF STUDY (STUDY DURATION: 18 MO)): inactive; negative
carcinogen call (Species: RAT, Strain/Sex: WISTAR/FEMALE, Route: ORAL, Dose: 0, 5, 20, 80 MG/100 G OF DIET FOR DURATION OF STUDY (STUDY DURATION: 2 YR), Dose: 0, 5, 20, 80 MG/100 G OF DIET FOR DURATION OF STUDY (STUDY DURATION: 2 YR)): inactive; negative
carcinogen call (Species: RAT, Strain/Sex: WISTAR/MALE, Route: ORAL, Dose: 0, 5, 20, 80 MG/100 G OF DIET FOR DURATION OF STUDY (STUDY DURATION: 2 YR), Dose: 0, 5, 20, 80 MG/100 G OF DIET FOR DURATION OF STUDY (STUDY DURATION: 2 YR)): inactive; negative

O=C(O)c1cc2ccccc2c(N=Nc2ccccc2)c1O
carcinogen call (Species: MOUSE, Strain/Sex: ICR/FEMALE, Route: DERMAL, Dose: 0, 1 MG IN 0.1 ML DISTILLED WATER 2/WK FOR A MEAN TOTAL DOSE OF 122.2 MG (STUDY DURATION: 18 MO)): inactive; negative
carcinogen call (Species: MOUSE, Strain/Sex: ICR/MALE, Route: DERMAL, Dose: 0, 1 MG IN 0.1 ML DISTILLED WATER 2/WK FOR A MEAN TOTAL DOSE OF 122.2 MG (STUDY DURATION: 18 MO)): inactive; negative

Cn1c2ccccc2c2ccccc21
carcinogen call (Species: MOUSE, Strain/Sex: CD-1/FEMALE, Route: INTRAPERITONEAL, Dose: 0, 1.75 UMOL/MOUSE (TOTAL DOSE) ADMINISTERED DURING DAYS 1, 8, AND 15 OF LIFE (STUDY DURATION: 52 WK)): inactive; negative
carcinogen call (Species: MOUSE, Strain/Sex: CD-1/MALE, Route: INTRAPERITONEAL, Dose: 0, 1.75 UMOL/MOUSE (TOTAL DOSE) ADMINISTERED DURING DAYS 1, 8, AND 15 OF LIFE (STUDY DURATION: 52 WK)): inactive; negative

COc1nc(C)nc(NC(=O)NS(=O)(=O)c2ccccc2Cl)n1
carcinogen call (Species: Rat, Strain/Sex: CD/Female (50/group), Route: Oral, Dose: 0, 100, 500, 2,500 ppm in diet for 2 yr, Dose: 0, 100, 500, 2,500 ppm in diet for 2 yr): inactive; negative (study details not given in source; purity 92-95%)
carcinogen call (Species: Rat, Strain/Sex: CD/Male (50/group), Route: Oral, Dose: 0, 100, 500, 2,500 ppm in diet for 2 yr, Dose: 0, 100, 500, 2,500 ppm in diet for 2 yr): inactive; negative (study details not given in source; purity 92-95%)

CCOS(C)(=O)=O
carcinogen call (Species: MOUSE, Route: INTRAPERITONEAL, Tumor Site: Type of Lesion: LUNG, KIDNEY): active; positive
carcinogen call (Species: MOUSE, Route: SUBCUTANEOUS, Tumor Site: Type of Lesion: LUNG): active; positive
carcinogen call (Species: MOUSE, Strain/Sex: ICR/FEMALE, Route: SUBCUTANEOUS, Dose: 0, 20 UMOL/MOUSE IN TRIOCTANOIN INTO LEFT FLANK, 1/WK FOR 52 WK (STUDY DURATION: 450 D), Tumor Site: Type of Lesion: THYMUS GLAND: LYMPHOMA, LUNG: ADENOMA): active; positive
carcinogen call (Species: RAT, Route: INTRAPERITONEAL, Tumor Site: Type of Lesion: LUNG, KIDNEY): active; positive

OC1c2cccc3c4ccccc4c4c5ccccc5cc(c4c23)C1O (stereo unspecified)
carcinogen call (Species: MOUSE, Strain/Sex: SWISS/FEMALE, Route: DERMAL, Dose: 0, 1, 4 NMOL IN 100 µL ACETONE 2/WK FOR 40 WK (STUDY DURATION: 48 WK), Dose: 0, 1, 4 NMOL IN 100 µL ACETONE 2/WK FOR 40 WK (STUDY DURATION: 48 WK)): inactive; negative

O=c1ccc2ccc3occc3c2o1
carcinogen call (Species: MOUSE, Strain/Sex: C3H/HEN/FEMALE, Route: DERMAL, Dose: 215 UG IN 70% ETHANOL 3/WK FOR 48 WK (STUDY DURATION: 68 WK)): inactive; negative

[O]=[Mo](=[O])=[O]
carcinogen call (Species: MOUSE, Strain/Sex: B6C3F1/FEMALE, Route: INHALATION, Dose: 0, 10, 30, 100 MG/M3 6 HR/D 5 D/WK FOR 105 WK (STUDY DURATION: 105 WK), Dose: 0, 10, 30, 100 MG/M3 6 HR/D 5 D/WK FOR 105 WK (STUDY DURATION: 105 WK), Tumor Site: Type of Lesion: LUNG: ALVEOLAR/BRONCHIOLAR ADENOMA, ALVEOLAR/BRONCHIOLAR ADENOMA OR CARCINOMA): active; positive
carcinogen call (Species: MOUSE, Strain/Sex: B6C3F1/MALE, Route: INHALATION, Dose: 0, 10, 30, 100 MG/M3 6 HR/D 5 D/WK FOR 105 WK (STUDY DURATION: 105 WK), Dose: 0, 10, 30, 100 MG/M3 6 HR/D 5 D/WK FOR 105 WK (STUDY DURATION: 105 WK), Tumor Site: Type of Lesion: LUNG: ALVEOLAR/BRONCHIOLAR CARCINOMA): active; positive
carcinogen call (Species: RAT, Strain/Sex: F344/FEMALE, Route: INHALATION, Dose: 0, 10, 30, 100 MG/M3 6 HR/D 5 D/WK FOR 106 WK (STUDY DURATION: 106 WK), Dose: 0, 10, 30, 100 MG/M3 6 HR/D 5 D/WK FOR 106 WK (STUDY DURATION: 106 WK)): inactive; negative
carcinogen call (Species: RAT, Strain/Sex: F344/MALE, Route: INHALATION, Dose: 0, 10, 30, 100 MG/M3 6 HR/D 5 D/WK FOR 106 WK (STUDY DURATION: 106 WK), Dose: 0, 10, 30, 100 MG/M3 6 HR/D 5 D/WK FOR 106 WK (STUDY DURATION: 106 WK), Tumor Site: Type of Lesion: LUNG: ALVEOLAR/BRONCHIOLAR ADENOMA, ALVEOLAR/BRONCHIOLAR CARCINOMA, ALVEOLAR/BRONCHIOLAR ADENOMA OR CARCINOMA): equivocal
